Data reported in US5858702A, “Isolation, cloning and expression of transmembrane water channel Aquaporin 5 (AQP5)” (The Johns Hopkins University, priority 1995, dated 1999).
“Also recorded” adds a separate entry of the source.

What was measured:
AQP5 = target: T1, AQP5 (Rattus norvegicus, UniProt P47864); assay: Xenopus oocyte swelling assay, AQP5-expressing oocytes treated with HgCl2 / β-mercaptoethanol; type: cell-based; conditions: for effect of HgCl2 on Pf of oocytes expressing AQP5: 1 mM HgCl2, 5 min.
T1 construct: expressed in transfected cells; host or cells: Xenopus oocytes (defolliculated, stage V-VI) injected with cRNA
T1 sequence (P47864 whole entry): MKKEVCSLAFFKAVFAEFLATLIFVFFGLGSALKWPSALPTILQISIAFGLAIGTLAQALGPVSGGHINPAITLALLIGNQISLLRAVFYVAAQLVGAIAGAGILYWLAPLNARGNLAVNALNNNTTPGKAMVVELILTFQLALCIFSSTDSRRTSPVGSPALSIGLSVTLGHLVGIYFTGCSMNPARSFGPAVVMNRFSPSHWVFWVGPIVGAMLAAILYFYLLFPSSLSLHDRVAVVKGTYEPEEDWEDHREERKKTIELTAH
Description: Functional expression in Oocytes--A 1-kb BamHI fragment containing the 5' untranslated sequence and the entire open reading frame of the salivary cDNA was blunt-end-ligated into the BglII site of the Xenopus expression construct pXβG, which contains the HindIII-Pst insert of pSP64T in pBS II KS (Preston et al., 1992, Science, 256:385-387). Capped cRNA was synthesized in vitro after digestion with Xbal (Preston et al., 1993). Defolliculated stage V-VI Xenopus oocytes were injected with 50 nl of water or up to 5 ng of sample cRNAs and incubated for 3 days at 18° C. in 200 mosM modified Barth's buffer. The oocytes were transferred to 70 mosM modified Barth's buffer at 21° C.; oocyte swelling was monitored by videomicroscopy, and the coefficient of osmotic water permeability (Pf) was determined (Preston et al., 1992, 1993). Uptake of [^14 C]urea or [^14 C]glycerol was measured by incubating oocytes in 200 mosM Barth's buffer for 10-20 min at 21° C. followed by washing and SDS solubilization. No increase in ion conductance was found when control oocytes were compared to RNA-injected oocytes by two electrode voltage clamps (Preston et al, 1992).
Shown are the mean values and standard deviations of 4-5 oocytes receiving no further treatment (stippled bars), oocytes incubated for 5 min. in 1 mM HgCl2 (black bars), or oocytes incubated for 5 min. in 1 mM HgCl2 followed by 30 min. in 5 mM β-mercaptoethanol (open bars). Similar to oocytes injected with AQP1 cRNA, injection of oocytes with the salivary cRNA increased the Pf by approximately 20-fold (FIG. 15). Therefore, the salivary protein qualifies as the 5th mammalian member of the Aquaporin family of water channels (Agre et al., 1993b, Am. J. Physiol., 265:F461), and the gene has been designated Aquaporin-5 (symbol AQP5) by the Genome Data Base.

AQP1 = target: T2, AQP1 (Homo sapiens, UniProt P29972); assay: Xenopus oocyte osmotic swelling assay, AQP1 RNA-injected oocytes treated with HgCl2 / β-mercaptoethanol; type: cell-based; conditions: for Pf: AQP1 RNA-injected (10 ng) oocytes
T2 construct: expressed in transfected cells; host or cells: Xenopus laevis oocytes injected with in vitro transcribed AQP1 RNA
T2 sequence (P29972 1-269): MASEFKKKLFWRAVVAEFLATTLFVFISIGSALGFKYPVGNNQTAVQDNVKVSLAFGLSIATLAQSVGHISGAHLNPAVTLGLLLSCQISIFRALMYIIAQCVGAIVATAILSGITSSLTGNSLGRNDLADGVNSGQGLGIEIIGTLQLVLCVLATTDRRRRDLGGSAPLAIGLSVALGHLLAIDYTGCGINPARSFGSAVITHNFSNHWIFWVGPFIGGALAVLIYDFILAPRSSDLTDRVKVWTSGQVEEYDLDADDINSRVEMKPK
Description: (§1) Expression of AOP1 in Xenopus oocytes. Oocytes were removed from female Xenopus laevis frogs and prepared as described by Dascal (CRC Crit. Rev. Biochem., 1987, 22:317-373). Oocytes were injected with 0.05 microliters of water (control) or the same volume of water containing 1-10 nanograms of AQP1 RNA. The oocytes were incubated for up to 96 hours at 18° C. in modified Barth's buffer (88 mM NaCl, 1 mM KCl, 0.8 mM MgSO4, 0.3 mM Ca(NO3) 2, 0.4 mM CaCl2, 2.4 mM NaHCO3, 10 mM HEPES, pH =7.4, total osmolality =200 mOsm/kg) also containing antibiotics. The whole oocytes were then removed and total cellular protein was dissolved in 40 microliters of buffer containing 1% (w/v) SDS and analyzed by immunoblot (Towbin et al., 1979, Proc. Natl. Acad. Sci. USA 76:4350-4354).
(§2) A swelling assay was adapted from that of published work (Fischbarg et al., 1990, Proc. Natl. Acad. Sci. USA 87:3244-3247; Zhang et al., 1990, J. Biol. Chem. 265:15375-15378). Control-injected oocytes and AQP1 RNA-injected oocytes were incubated at 22° C. in modified Barth's solution diluted with distilled H2 O to 30% of the original tonicity. The oocytes were then observed by videomicroscopy. Swelling was monitored with a Nikon phase-contrast microscope equipped for videorecording. The longest (D1) and shortest (D2) diameters of the oocytes were measured at 15- to 30-second intervals. Oocyte volumes (V) at each time point were calculated relative to volume at the initial observation (V0):
The change in relative volume with time, d(V/Vo)/dt, up to 8 minutes (or time of oocyte rupture) was fitted by computer to a quadratic polynomial, and initial rates of swelling were calculated. Osmotic water permeability (Pf, in cm/s) was calculated from osmotic swelling data, initial oocyte surface area (S=0.045 cm^2), and the molar volume of water (Vw =18 cm^3 /mol) (Zhang et al., 1990, J. Biol. Chem. 15375):
Pf =[Vo ×d(V/V0)dt]/[S×Vw
After 72 hours, control- or AQP1 RNA-injected (10 ng) oocytes were treated as indicated. Some oocytes were left in standard Barth's buffer prior to measurement of osmotic swelling at 22° C. […]

Red cell water channels = conditions: submillimolar concentrations; cited from earlier work
Xenopus oocytes = assay: Osmotic water permeability (swelling) of control- or AQP1 RNA-injected Xenopus oocytes; type: cell-based, Xenopus laevis; conditions: control-injected oocytes (RNA None), 22° C.
Description: as §1
as §2, with “Control-injected oocytes and AQP1 RNA-injected oocytes were incubated at 22° C. in modified Barth's solution diluted with distilled H2 O to 30% of the original tonicity. The oocytes were then observed by videomicroscopy.” left out, “(V0): […]” for “(V0):”

Compound | effect of HgCl2 on Pf of oocytes expressing AQP5 (AQP5) | effect of HgCl2 on Pf of oocytes expressing AQP5 (AQP5; listed as Hg Cl2) | Swelling of AQP1 RNA-injected oocytes, effect of HgCl2 (AQP1; 0.3 mM HgCl2) | effect of HgCl2 on increase in Pf mediated by AQP1 (AQP1; 1 mM HgCl2, 5 min. (FIG. 15)) | Pf (AQP1; 72 hours, HgCl2 0.3, ME 0, 5 minutes, swelling at 22° C.) [cm/s x 10^-4] | Pf (AQP1; 72 hours, HgCl2 3.0, ME 0, 5 minutes, 22° C.) [cm/s x 10^-4] | inhibition of red cell water channels (Red cell water channels) | Pf (Xenopus oocytes; HgCl2 0.3 (nM), ME 0) [cm/s x 10^-4] | Pf of AQP5 oocytes after HgCl2, effect of β-mercaptoethanol (AQP5; 5 mM β-mercaptoethanol 30 min. after 1 mM HgCl2) | Pf of AQP1 oocytes after HgCl2, effect of β-mercaptoethanol (AQP1; 5 mM β-mercaptoethanol 30 min. after 1 mM HgCl2 (FIG. 15)) | Swelling of AQP1 RNA-injected oocytes after HgCl2, effect of β-mercaptoethanol (AQP1; 5 mM β-mercaptoethanol after 0.3 mM HgCl2) | Pf (AQP1; HgCl2 0.3 then ME 5 for 15 min, 22° C.) [cm/s x 10^-4] | Pf (Xenopus oocytes) [cm/s x 10^-4]
[Cl][Hg][Cl] [HgCl2] | comparable reduction in Pf; also recorded: reversibly inhibited | reversibly inhibited | inhibited | blocked | 80.7 | 34.5 | can be inhibited by submillimolar concentrations | 20.3 | – | – | – | – | –
OCCS [β-mercaptoethanol] | – | – | – | – | – | – | – | – | restored | restored | restored | 188 | 25.4
